In one assay the target is M^pro (Severe acute respiratory syndrome coronavirus 2 (2019-nCoV) (SARS-CoV-2), UniProt P0DTD1). The assay is classed as binding. The conditions noted are these: steady-state analysis, 25° C.
Assay [1] concerns the target SARS-CoV-2 M^pro protease (Severe acute respiratory syndrome coronavirus 2 (2019-nCoV) (SARS-CoV-2), UniProt P0DTD1). Nature of the assay: biochemical. It counts as biochemical. The conditions noted are these: for IC50: Tables 5B-5E, M^pro 75 nM, substrate 10 μM.

Where two headings read alike, the source gives them in different places. A value given as a limit tells only on which side of the number the result lay.

Regarding `O=C1NC2(CC(n3cccn3)C2)C(=O)N1c1cncc2ccccc12` (stereo not shown) [Compound 46, 7-(isoquinolin-4-yl)-2-(1H-pyrazol-1-yl)-5,7-diazaspiro[3.4]octane-6,8-dione], the Kd on M^pro stood at 0.93 µM.

With `O=C1NC2(CC(c3cn(Cc4ccccc4)nn3)C2)C(=O)N1c1cncc2ccccc12` (stereo not shown) [Compound 47, 2-(1-benzyl-1H-1,2,3-triazol-4-yl)-7-(isoquinolin-4-yl)-5,7-diazaspiro[3.4]octane-6,8-dione], the IC50 in assay [1] is 10.8 µM.

On to `O=C1NC2(CC(OCc3ccccc3)C2)C(=O)N1c1cncc2ccccc12` (stereo not shown) [Compound 48, 2-(benzyloxy)-7-(isoquinolin-4-yl)-5,7-diazaspiro[3.4]octane-6,8-dione], for which the IC50 in assay [1] came out at 2.58 µM.

Regarding `O=C1NC2(CC(c3ccccc3Cl)C2)C(=O)N1c1cncc2ccc(F)cc12` (stereo not shown) [Compound 54, 2-(2-chlorophenyl)-7-(6-fluoroisoquinolin-4-yl)-5,7-diazaspiro[3.4]octane-6,8-dione], inhibition in assay [1] was half-maximal at 0.066 µM (IC50).

In assay [1], `O=C1NC2(CC(c3ccccc3Cl)C2)C(=O)N1c1cncc2cc(F)ccc12` (stereo not shown) [Compound 55, 2-(2-chlorophenyl)-7-(7-fluoroisoquinolin-4-yl)-5,7-diazaspiro[3.4]octane-6,8-dione] came in with an IC50 of 0.187 µM.

Regarding `COc1ccc2cncc(N3C(=O)NC4(CC(C5CCC5)C4)C3=O)c2c1` (stereo not shown) [Compound 57, 2-cyclobutyl-7-(6-methoxyisoquinolin-4-yl)-5,7-diazaspiro[3.4]octane-6,8-dione], in assay [1], the IC50 stood at 0.34 µM.

In assay [1], `Cc1ccc2cncc(N3C(=O)NC4(CC(C5CCC5)C4)C3=O)c2c1` (stereo not shown) [Compound 58, 2-cyclobutyl-7-(6-methylisoquinolin-4-yl)-5,7-diazaspiro[3.4]octane-6,8-dione] showed an IC50 of 0.361 µM.

For the compound `CN1C(=O)N(c2cncc3ccccc23)C(=O)C12CC(c1ccccc1Br)C2` (stereo not shown) [Compound 67, 2-(2-bromophenyl)-7-(isoquinolin-4-yl)-5-methyl-5,7-diazaspiro[3.4]octane-6,8-dione], the IC50 in assay [1] was 0.14 µM.

`CN1C(=O)N(c2cncc3ccccc23)C(=O)C12CC(c1ccccc1Cl)C2` (stereo not shown) [Compound 68, 2-(2-chlorophenyl)-7-(isoquinolin-4-yl)-5-methyl-5,7-diazaspiro[3.4]octane-6,8-dione] displayed an IC50 in assay [1] of 0.453 µM.

As for `CN1C(=O)N(c2cncc3ccccc23)C(=O)C12CC(C1CCC1)C2` (stereo not shown) [Compound 69, 2-cyclobutyl-7-(isoquinolin-4-yl)-5-methyl-5,7-diazaspiro[3.4]octane-6,8-dione], the IC50 in assay [1] is 0.562 µM.

Take `NC(=O)CN1C(=O)N(c2cncc3ccccc23)C(=O)C12CC(C1CCC1)C2` (stereo not shown) [Compound 70, 2-(2-cyclobutyl-7-(isoquinolin-4-yl)-6,8-dioxo-5,7-diazaspiro[3.4]octan-5-yl)acetamide]: the midpoint of inhibition in assay [1], the IC50, lay at 0.944 µM.

With `O=C1N(c2cncc3ccccc23)C(=O)C2(CC(C3CCC3)C2)N1Cc1cc(Cl)nc(Cl)c1` (stereo not shown) [Compound 71, 2-cyclobutyl-5-((2,6-dichloropyridin-4-yl)methyl)-7-(isoquinolin-4-yl)-5,7-diazaspiro[3.4]octane-6,8-dione], the IC50 in assay [1] stood at 1.07 µM.

Regarding `N#CCN1C(=O)N(c2cncc3ccccc23)C(=O)C12CC(C1CCC1)C2` (stereo not shown) [Compound 72, 2-(2-cyclobutyl-7-(isoquinolin-4-yl)-6,8-dioxo-5,7-diazaspiro[3.4]octan-5-yl)acetonitrile], inhibition in assay [1] was half-maximal at 1.36 µM (IC50).

`O=C(CN1C(=O)N(c2cncc3ccccc23)C(=O)C12CC(C1CCC1)C2)c1ccccn1` (stereo not shown) [Compound 73, 2-cyclobutyl-7-(isoquinolin-4-yl)-5-(2-oxo-2-(pyridin-2-yl)ethyl)-5,7-diazaspiro[3.4]octane-6,8-dione]: the midpoint of inhibition in assay [1], the IC50, lay at 1.44 µM.

For `C=CCN1C(=O)N(c2cncc3ccccc23)C(=O)C12CC(C1CCC1)C2` (stereo not shown) [Compound 74, 5-allyl-2-cyclobutyl-7-(isoquinolin-4-yl)-5,7-diazaspiro[3.4]octane-6,8-dione], inhibition in assay [1] was half-maximal at 1.51 µM (IC50).

For the compound `CCN1C(=O)N(c2cncc3ccccc23)C(=O)C12CC(C1CCC1)C2` (stereo not shown) [Compound 75, 2-cyclobutyl-5-ethyl-7-(isoquinolin-4-yl)-5,7-diazaspiro[3.4]octane-6,8-dione], half-maximal inhibition in assay [1] (IC50) required 2 µM.

`O=C1N(c2cncc3ccccc23)C(=O)C2(CC(C3CCC3)C2)N1Cc1ccccn1` (stereo not shown) [Compound 76, 2-cyclobutyl-7-(isoquinolin-4-yl)-5-(pyridin-2-ylmethyl)-5,7-diazaspiro[3.4]octane-6,8-dione] displayed an IC50 in assay [1] of 2.47 µM.

With `O=C1N(c2cncc3ccccc23)C(=O)C2(CC(C3CCC3)C2)N1Cc1ncc[nH]1` (stereo not shown) [Compound 77, 5-((1H-imidazol-2-yl)methyl)-2-cyclobutyl-7-(isoquinolin-4-yl)-5,7-diazaspiro[3.4]octane-6,8-dione], in assay [1], inhibition was half-maximal at 2.52 µM (IC50).

Compound `O=C1CCCN1CN1C(=O)N(c2cncc3ccccc23)C(=O)C12CC(C1CCC1)C2` (stereo not shown) [Compound 78, 2-cyclobutyl-7-(isoquinolin-4-yl)-5-((2-oxopyrrolidin-1-yl)methyl)-5,7-diazaspiro[3.4]octane-6,8-dione] had an IC50 in assay [1] of 3.06 µM.

Compound `CC(=O)N1C(=O)N(c2cncc3ccccc23)C(=O)C12CC(C1CCC1)C2` (stereo not shown) [Compound 79, 5-acetyl-2-cyclobutyl-7-(isoquinolin-4-yl)-5,7-diazaspiro[3.4]octane-6,8-dione] returned an IC50 in assay [1] of 3.08 µM.

With `O=C1N(c2cncc3ccccc23)C(=O)C2(CC(C3CCC3)C2)N1Cc1ccn[nH]1` (stereo not shown) [Compound 80, 5-((1H-pyrazol-5-yl)methyl)-2-cyclobutyl-7-(isoquinolin-4-yl)-5,7-diazaspiro[3.4]octane-6,8-dione], in assay [1], half-maximal inhibition (IC50) was put at 3.82 µM.

In assay [1], `O=C1NC2(CC(c3ccccc3Cl)C2)C(=O)N1c1cccnn1` (stereo not shown) [Compound 81, 2-(2-chlorophenyl)-7-(pyridazin-3-yl)-5,7-diazaspiro[3.4]octane-6,8-dione] gave an IC50 of 0.419 µM.

As for `O=C1NC2(CC(c3ccccc3Cl)C2)C(=O)N1c1cnccc1Oc1ccccc1` (stereo not shown) [Compound 82, 2-(2-chlorophenyl)-7-(4-phenoxypyridin-3-yl)-5,7-diazaspiro[3.4]octane-6,8-dione], the activity at […] in assay [1] (percent of control activity at 2500 nM, read-out: % activity at 2500 nM) came to 55%.

Take `O=C1NC2(CC(c3ccccc3Cl)C2)C(=O)N1c1cc(Br)cnc1F` (stereo not shown) [Compound 85, 7-(5-bromo-2-fluoropyridin-3-yl)-2-(2-chlorophenyl)-5,7-diazaspiro[3.4]octane-6,8-dione]: the midpoint of inhibition in assay [1], the IC50, lay at 0.323 µM.

In the case of `O=C1NC2(CC(c3ccccc3Cl)C2)C(=O)N1c1c(Cl)ncc2ccccc12` (stereo not shown) [Compound 86, 7-(3-chloroisoquinolin-4-yl)-2-(2-chlorophenyl)-5,7-diazaspiro[3.4]octane-6,8-dione], the activity at […] in assay [1] (percent of control activity at 750 nM, read-out: % activity at 750 nM) was 57%.

Turning to `O=C1NC2(CC(c3cc(F)c(F)cc3Cl)C2)C(=O)N1c1cncc2ccccc12` (stereo not shown) [Compound 87, 2-(2-chloro-4,5-difluorophenyl)-7-(isoquinolin-4-yl)-5,7-diazaspiro[3.4]octane-6,8-dione], it took 0.115 µM to reach half-maximal inhibition in assay [1] (IC50).

`Cc1ccnc(F)c1N1C(=O)NC2(CC(c3ccccc3Cl)C2)C1=O` (stereo not shown) [Compound 90, 2-(2-chlorophenyl)-7-(2-fluoro-4-methylpyridin-3-yl)-5,7-diazaspiro[3.4]octane-6,8-dione] had an IC50 in assay [1] of 0.223 µM.

`COc1ccnc(F)c1N1C(=O)NC2(CC(c3ccccc3Cl)C2)C1=O` (stereo not shown) [Compound 91, 2-(2-chlorophenyl)-7-(2-fluoro-4-methoxypyridin-3-yl)-5,7-diazaspiro[3.4]octane-6,8-dione]: the IC50 in assay [1] was > 50 µM.

`O=C1NC2(CC(c3ccccc3Cl)C2)C(=O)N1c1cnccc1C(F)(F)F` (stereo not shown) [Compound 92, 2-(2-chlorophenyl)-7-(4-(trifluoromethyl)pyridin-3-yl)-5,7-diazaspiro[3.4]octane-6,8-dione] had an IC50 in assay [1] of 0.309 µM.

In the case of `CN(C)c1ccncc1N1C(=O)NC2(CC(c3ccccc3Cl)C2)C1=O` (stereo not shown) [Compound 93, 2-(2-chlorophenyl)-7-(4-(dimethylamino)pyridin-3-yl)-5,7-diazaspiro[3.4]octane-6,8-dione], the IC50 in assay [1] came out at 0.157 µM.

In assay [1], `O=C1NC2(CC(c3ccccc3Cl)C2)C(=O)N1c1cnnc2ccccc12` (stereo not shown) [Compound 94, 2-(2-chlorophenyl)-7-(cinnolin-4-yl)-5,7-diazaspiro[3.4]octane-6,8-dione] yielded an IC50 of 1.8 µM.

In turn, `CC1(c2ccccc2Cl)CC2(C1)NC(=O)N(c1cncc3ccccc13)C2=O` (stereo not shown) [Compound 95, 2-(2-chlorophenyl)-7-(isoquinolin-4-yl)-2-methyl-5,7-diazaspiro[3.4]octane-6,8-dione] had an IC50 in assay [1] of 0.069 µM.

The compound `CC1(c2ccccc2Cl)CC2(C1)NC(=O)N(c1cncc3ccccc13)C2=O` (stereo not shown) [Compound 96, 2-(2-chlorophenyl)-7-(isoquinolin-4-yl)-2-methyl-5,7-diazaspiro[3.4]octane-6,8-dione] displayed an IC50 in assay [1] of 0.408 µM.

`O=C1NC2(CC(c3ccccc3Cl)C2)C(=O)N1c1cncc2nc[nH]c12` (stereo not shown) [Compound 97, 2-(2-chlorophenyl)-7-(1H-imidazo[4,5-c]pyridin-7-yl)-5,7-diazaspiro[3.4]octane-6,8-dione] showed a half-maximal inhibitory concentration (IC50) in assay [1] of 0.287 µM.

`O=C1NC2(CC(c3ccccc3Cl)C2)C(=O)N1c1cncc2[nH]c(=O)[nH]c12` (stereo not shown) [Compound 98, 2-(2-chlorophenyl)-7-(2-oxo-2,3-dihydro-1H-imidazo[4,5-c]pyridin-7-yl)-5,7-diazaspiro[3.4]octane-6,8-dione] registered an IC50 in assay [1] of 1.38 µM.

As to `O=C1NC2(CC(c3ccccc3Cl)C2)C(=O)N1c1cncc2nccn12` (stereo not shown) [Compound 99, 2-(2-chlorophenyl)-7-(imidazo[1,2-a]pyrazin-5-yl)-5,7-diazaspiro[3.4]octane-6,8-dione], in assay [1], 0.78 µM corresponded to half-maximal inhibition (IC50).

In turn, `O=C1NC2(CC(c3ccccc3Cl)C2)C(=O)N1c1cccnc1` (stereo not shown) [Compound 100, 2-(2-chlorophenyl)-7-(pyridin-3-yl)-5,7-diazaspiro[3.4]octane-6,8-dione] returned an IC50 in assay [1] of 0.295 µM.

The term Kd denotes a measure of binding affinity in units of concentration. Low values mean higher affinity, high ones lower affinity. Broadly, the IC50 is the concentration that gives 50% inhibition. A lower IC50 goes with greater potency.

(Values after patent publication US20240208970A1, “SUBSTITUTED HYDANTOIN COMPOUNDS, METHODS FOR PREPARATION THEREOF AND USE THEREOF IN THE TREATMENT AND/OR PREVENTION OF A CORONA VIRUS DISEASE” (priority 2021, published 2024).)
